Results as given in patent US20050033021A1, “Chimeric Gatiphal 15 variants and their use in the analysis and discovery of modulators of G-protein coupled receptors” (priority 2003, published 2005).

Molecular target: T1, rat T1 R1/T1 R3 umami taste receptor (Rattus norvegicus, UniProt Q923K1+Q9Z0R8)
T1 construct: expressed in transfected cells; host or cells: HEK-293, transient transfection, pEAK10 expression vector
T1 sequence (Q9Z0R8 20-840): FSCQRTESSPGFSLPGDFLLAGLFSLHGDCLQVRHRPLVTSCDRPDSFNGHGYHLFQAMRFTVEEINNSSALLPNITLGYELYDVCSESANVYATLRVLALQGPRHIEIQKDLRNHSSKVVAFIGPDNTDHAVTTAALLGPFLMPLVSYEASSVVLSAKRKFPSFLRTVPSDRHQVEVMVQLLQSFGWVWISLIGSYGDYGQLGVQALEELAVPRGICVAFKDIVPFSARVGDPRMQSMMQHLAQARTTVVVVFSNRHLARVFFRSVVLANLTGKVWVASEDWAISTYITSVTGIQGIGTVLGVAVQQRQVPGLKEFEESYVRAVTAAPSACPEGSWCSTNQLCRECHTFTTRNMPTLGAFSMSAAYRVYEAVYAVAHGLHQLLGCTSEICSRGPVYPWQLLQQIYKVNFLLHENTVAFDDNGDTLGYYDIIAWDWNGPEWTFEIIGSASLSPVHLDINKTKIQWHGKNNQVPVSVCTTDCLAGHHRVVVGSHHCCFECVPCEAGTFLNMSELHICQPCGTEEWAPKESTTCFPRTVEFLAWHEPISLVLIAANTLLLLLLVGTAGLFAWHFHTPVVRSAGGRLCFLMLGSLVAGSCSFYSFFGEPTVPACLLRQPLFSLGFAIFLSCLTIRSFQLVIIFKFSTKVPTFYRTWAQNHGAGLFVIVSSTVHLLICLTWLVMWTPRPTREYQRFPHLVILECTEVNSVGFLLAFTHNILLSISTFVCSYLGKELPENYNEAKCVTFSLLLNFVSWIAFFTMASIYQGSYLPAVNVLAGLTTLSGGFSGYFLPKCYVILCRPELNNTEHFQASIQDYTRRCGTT
T1 sequence (Q923K1 21-858): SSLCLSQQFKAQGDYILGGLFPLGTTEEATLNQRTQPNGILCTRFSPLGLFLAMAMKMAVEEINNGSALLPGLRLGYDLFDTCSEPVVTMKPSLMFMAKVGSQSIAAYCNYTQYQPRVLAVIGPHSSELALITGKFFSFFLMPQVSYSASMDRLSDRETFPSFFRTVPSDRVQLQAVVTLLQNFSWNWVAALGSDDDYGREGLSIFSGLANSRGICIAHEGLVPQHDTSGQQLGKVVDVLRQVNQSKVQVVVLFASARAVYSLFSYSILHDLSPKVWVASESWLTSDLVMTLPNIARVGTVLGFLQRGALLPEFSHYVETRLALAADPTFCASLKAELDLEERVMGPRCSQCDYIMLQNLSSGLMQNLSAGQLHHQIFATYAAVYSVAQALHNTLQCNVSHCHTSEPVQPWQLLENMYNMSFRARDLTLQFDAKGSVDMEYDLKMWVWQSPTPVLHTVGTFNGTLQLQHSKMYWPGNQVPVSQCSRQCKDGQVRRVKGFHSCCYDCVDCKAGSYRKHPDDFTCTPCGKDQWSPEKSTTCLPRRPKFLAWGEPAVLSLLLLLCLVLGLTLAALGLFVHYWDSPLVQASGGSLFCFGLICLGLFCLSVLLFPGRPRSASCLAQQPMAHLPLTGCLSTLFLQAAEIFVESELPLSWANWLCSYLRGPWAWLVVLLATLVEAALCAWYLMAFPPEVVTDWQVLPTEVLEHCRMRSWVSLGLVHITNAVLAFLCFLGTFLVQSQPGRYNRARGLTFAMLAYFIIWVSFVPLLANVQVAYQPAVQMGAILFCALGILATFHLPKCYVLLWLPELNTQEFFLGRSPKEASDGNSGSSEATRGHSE
Experiment: Calcium imaging of HEK-293 cells transiently transfected with rat T1R1, T1R3 and Ga15 or Ga15/i1
Format: cell-based
Conditions: HEK-293 with rat T1R1, T1R3 and Ga15/i1; in the presence of 2.5 mM IMP
From the text: Rat T1 R2 and T1 R3 expression constructs were generated using the pEAK10 expression vector (Edge Biosystems). (Rat T1 R1, T1 R2, and T1 R3 nucleic acid sequences are described in U.S. Provisional Application No. 60/339,472, incorporated by reference in its entirety herein). […] Calcium mobilization was monitored on an Axiovert S100 microscope equipped with an inverted 10X/0.5 LWID piano fluor objective (Zeiss) and a cooled CCID camera (Princeton Instruments). Fluorescence images were acquired at 480 nrn excitation and 535 nm emission, and analyzed with Imaging Workbench 4.0 software (Axon Instruments). T1 R receptor activity was quantitated by counting the number of responding cells 30 seconds after stimulus addition. […]

Row | SMILES | cell response (intracellular calcium) to umami taste stimuli
1 | N[C@@H](CC(=O)O)C(=O)O [L-aspartate] | responded
2 | N[C@@H](CCC(=O)O)C(=O)O [L-glutamate] | responded
